Here are results for one sequence from patent publication US9657081B2, “Inhibiting peptides derived from triggering receptor expressed on myeloid cells-1 (TREM-1) TREM-like transcript 1 (TLT-1) for treatment of cardiovascular diseases” (INSERM (Institut National de la Sante et de la Recherche …, priority 2013, dated 2017).

What all share (assay type): in vivo
Experiment [1] addresses T1, TREM-1 (Mus musculus, UniProt Q9JKE2).
T1 construct: endogenous in cells; host or cells: living mice (C57BL, Balb/c, ApoE-/-), in vivo
T1 sequence (Q9JKE2 21-230): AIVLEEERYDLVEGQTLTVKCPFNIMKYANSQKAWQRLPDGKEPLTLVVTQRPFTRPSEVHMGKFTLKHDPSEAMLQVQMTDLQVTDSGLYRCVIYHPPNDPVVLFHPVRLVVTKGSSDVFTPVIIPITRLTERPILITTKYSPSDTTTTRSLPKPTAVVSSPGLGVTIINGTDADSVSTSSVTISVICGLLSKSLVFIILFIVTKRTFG
In words: Mouse model of myocardial infarction, survival. To be noted: 100 μg daily for 5 days i.p., beginning 60 min after ligation; Log-Rank p<0.01. On the procedure: Adult male Balb/c mice (20-23 g) were subjected to myocardial ischemia and were randomly grouped (n=10-15 per group) to receive repeated TREM-1- and TLT-1-derived peptides (100 μg in 0.2 mL NaCl 0.9% once a day for 5 days), scrambled-LR12 (100 μg in 0.2 mL NaCl 0.9% once a day for 5 days), or 10 μg anti-TREM-1 mAb in 0.2 mL NaCl 0.9% i.p. injections. Survival was monitored over 1 wk and analyzed by Log Rank test. (There were no deaths after the 5th day). Data are representative of at least 15 different experiments.
All procedures were performed on mice male C57BL/C ranging in age from 6-8 weeks. Mice were anesthetized by an intraperitoneal injection of xylazine (60 mg/kg) and fixed in supine position. The trachea was intubated and ventilated (the tidal volume was 200 μl/25 g and the respiratory rate was 120 breaths/min). After a left thoracotomy, the left coronary artery was identified and ligated with an 8-0 prolene surgical suture at 1.0 mm distal from tip of the left auricle. LAD occlusion was confirmed by a change in myocardial color from red to white in the ischemia area (Left ventricle). The chest was closed and the skin was sutured with 6-0 silk. […]
Mice were monitored after surgery for mortality. Mice were randomized to receive or not peptides (daily ip injection for 5 days, 5 mg/kg) and monitored for survival. […]

Experiment [2] relates to TREM-1. In words: Rat model of myocardial ischemia-reperfusion, cardiac function by conductance catheter. The arrangement: PRSW: unit not given beside the values; Emax / ESPVR: unit not given here. The following applies: six weeks after ischemia-reperfusion; 3 mg/kg once a day for 5 days. How it is done: Adult male Wistar rats were subjected to myocardial ischemia-reperfusion and were randomly grouped (n=10) to receive repeated TREM-1- and TLT-1-derived peptides (3 mg/kg in 0.2 mL NaCl 0.9% once a day for 5 days) or scrambled-LR12 (3 mg/kg in 0.2 mL NaCl 0.9% once a day for 5 days). Six weeks after myocardial injury, cardiac function was investigated under anaesthesia by using a conductance catheter. Emax, ESPVR, and PRSW were higher in animals treated with TREM-1- and TLT-1-derived peptides than in control rats. All p<0.02 [controls versus LR12]).
Animals received same surgery than in permanent ischemia, but with reperfusion of ischemic area by release of the LAD ligation after 60 minutes of ischemia. The same protocol as described above was then applied.
Rats were anaesthetized with isoflurane and a 2 F high-fidelity micro-manometer catheter (SPR-407, Millar Institute, Houston, Tex., USA) was inserted into the LV via the right carotid artery. The Millar catheter was connected to a Harvard Data Acquisition System interfaced with a PC with the AcqKnowledge III software (ACQ 3.2).
To investigate the role of TREM-1- and TLT-1-derived peptides in a more relevant model of MI, we performed a transient coronary artery ligation (ischemia-reperfusion model: IR) in rats. After randomisation, animals were then imaged under anaesthesia (micro-TEP) and administered with TREM-1- and TLT-1-derived peptides (3 mg/kg daily for 5 days i.p.) or LR12-scrambled peptide. Imaging was then repeated at 6 weeks before we studied cardiac function by using a conductance catheter (Millar).

Experiment [3] addresses T1, TREM-1. The experiment in a line: Atherosclerosis in ApoE-/- mouse on fat diet. To be noted: apoE-/- mice, daily i.p. 100 μg/day, 4 weeks; vehicle 146736. How it is done: 12-week old male ApoE−/− mice were put on a fat diet (lipids 15%, cholesterol 1.25%, no cholate) and were treated by daily intraperitoneal injection of peptides (100 μg/day) or PBS. After 4 weeks of fat diet, mice were sacrificed for analysis.
Atherosclerotic plaques were stained using Red Oil and quantified in the aortic sinus. Using immunofluorescent staining and immunohistochemistry, we analyzed plaque composition. Finally, we explored the effects of peptide's treatment on monocyte recruitment in the atherosclerotic plaques using the pulse staining technique developed by Potteaux et al. Briefly, monocytes were labelled in vivo by retro-orbital i.v. injection of 1 μm Fluoresbrite green fluorescent plain microspheres diluted 1:4 in sterile PBS [Potteaux et al, 2011]. Fluorescent beads count in the lesions reflects monocyte recruitment.

As to “LQEEDAGEYGCM (listed as Homo sapiens) [TLT1-LR12]”, in the experiment with TREM-1 [1], the “survival after permanent coronary artery ligation” value is on record as “All but 1 LR12-treated animals survived”. In the experiment on TREM-1 [2], this sequence showed an ESPVR of 2.2 ± 0.1, an Emax of 4.8 ± 0.5 and a PRSW of 103 ± 5. Also, in the experiment with TREM-1 [3], the “atherosclerotic lesion size in the aortic sinus (Red Oil staining)” value is listed as 103318 μm^2.
